Experimental data as given in the supplement of paper PMC10307832.

Assays:
Experiment in all cases: relative viability (nuclei count vs DMSO), 5 days (fraction); higher = more cells survive
[1] = compound: Cc1cnc(CNC(=O)c2c(=O)c3ccc(N4CCCN(C)CC4)nc3n3c2sc2ccccc23)cn1 [CX-5461] + Cc1cc(Nc2cc(N3CCN(C)CC3)nc(Sc3ccc(NC(=O)C4CC4)cc3)n2)n[nH]1 [Tozasertib] (partner 0.1 µM)
Procedure, shortened: (§1)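 Relative viability divides the nuclei count in treated wells by that in vehicle wells. Lung cancer cell lines were seeded in 1536-well plates, dosed by pin tool the next day, and fixed and stained after 5 days in one step with final 0.05% Triton X-100, 1% formaldehyde and 1 ug/ml Hoechst. Dosing was a single drug or a fixed anchor-drug dose plus five library-drug doses (not always all listed) in √10 steps, and values are medians of duplicate plates imaged at 4×.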

[2] = compound: Cc1cnc(CNC(=O)c2c(=O)c3ccc(N4CCCN(C)CC4)nc3n3c2sc2ccccc23)cn1 [CX-5461] + O=C(c1cc(Cc2n[nH]c(=O)c3ccccc23)ccc1F)N1CCN(C(=O)C2CC2)CC1 [Olaparib] (partner 8 µM)
Procedure, shortened: as §1

[3] = compound: Cc1cnc(CNC(=O)c2c(=O)c3ccc(N4CCCN(C)CC4)nc3n3c2sc2ccccc23)cn1 [CX-5461] + CS(=O)(=O)CCNCc1ccc(-c2ccc3ncnc(Nc4ccc(OCc5cccc(F)c5)c(Cl)c4)c3c2)o1 [Lapatinib] (partner 2 µM)
Procedure, shortened: as §1

[4] = compound: Cc1cnc(CNC(=O)c2c(=O)c3ccc(N4CCCN(C)CC4)nc3n3c2sc2ccccc23)cn1 [CX-5461] + CC(C)C[C@H](NC(=O)[C@H](Cc1ccccc1)NC(=O)c1cnccn1)B(O)O [Bortezomib] (partner 0.002 µM)
Procedure, shortened: as §1

Row | Cell Line | relative viability ([1]; first compound 0.01 µM) | relative viability ([1]; first compound 0.03162 µM) | relative viability ([1]; first compound 0.1 µM) | relative viability ([1]; first compound 1 µM) | relative viability ([2]; first compound 0.01 µM) | relative viability ([2]; first compound 0.03162 µM) | relative viability ([2]; first compound 0.1 µM) | relative viability ([2]; first compound 1 µM) | relative viability ([3]; first compound 0.01 µM) | relative viability ([3]; first compound 0.03162 µM) | relative viability ([3]; first compound 0.1 µM) | relative viability ([3]; first compound 0.3162 µM) | relative viability ([3]; first compound 1 µM) | relative viability ([4]; first compound 0.01 µM) | relative viability ([4]; first compound 0.03162 µM) | relative viability ([4]; first compound 0.1 µM) | relative viability ([4]; first compound 0.3162 µM) | relative viability ([4]; first compound 1 µM) | relative viability ([1]; first compound 0.3162 µM) | relative viability ([2]; first compound 0.3162 µM)
1 | NCI-H522 | 0.521 | 0.44 | 0.597 | 0.646 | 0.647 | 0.645 | 0.664 | 0.664 |  |  |  |  |  |  |  |  |  |  |  | 
2 | HCC-15 | 0.434 | 0.586 | 0.333 | 0.176 | 0.607 | 0.721 | 0.625 | 0.538 | 0.886 | 0.914 | 0.869 | 0.264 | 0.605 | 1.04 | 1.16 | 1.02 | 1.03 | 0.731 | 0.321 | 0.693
3 | A-427 | 0.195 | 0.247 | 0.212 | 0.212 | 0.802 | 0.772 | 0.626 | 0.465 | 1.06 | 0.999 | 1.04 |  | 0.908 | 0.999 | 1.04 | 0.98 |  | 0.912 |  | 0.247
4 | NCI-H2228 | 0.245 | 0.213 | 0.224 | 0.0867 | 0.75 | 0.773 | 0.518 | 0.188 | 1.13 | 0.764 | 0.473 | 0.668 | 0.166 | 0.934 | 0.797 | 0.455 | 0.819 | 0.126 | 0.261 | 0.55
5 | NCI-H1734 | 0.261 | 0.293 | 0.266 | 0.238 | 0.662 | 0.67 | 0.633 | 0.511 | 1.08 | 1.12 | 0.951 | 0.553 | 0.523 | 0.948 | 1.18 | 0.838 | 0.751 | 0.45 | 0.209 | 0.553
6 | SK-LU-1 | 0.33 | 0.339 | 0.247 | 0.189 | 0.423 | 0.467 | 0.442 | 0.335 | 0.948 | 0.837 | 0.852 | 0.96 | 0.535 |  | 1.15 | 1.05 | 0.518 | 0.761 |  | 0.473
7 | PC-14 | 0.71 | 0.642 | 0.618 | 0.492 | 0.241 | 0.252 | 0.125 | 0.0738 | 0.328 | 0.457 | 0.304 | 0.104 | 0.337 | 1.02 | 0.918 | 1.03 | 0.837 | 0.944 | 0.293 | 0.213
8 | NCI-H1915 | 0.426 | 0.471 | 0.417 | 0.426 | 0.259 | 0.255 | 0.242 | 0.252 | 1.01 | 1.06 | 0.99 | 0.379 | 1.04 | 1.03 | 1.06 | 0.989 | 1.02 | 0.891 | 0.312 | 0.262
9 | NCI-H1666 | 0.629 | 0.609 | 0.488 | 0.406 | 0.708 | 0.731 | 0.748 | 0.676 | 0.733 | 0.637 |  | 0.55 | 0.398 | 0.839 | 0.741 |  | 0.758 | 0.505 | 0.534 | 0.696
10 | HCC-366 | 0.0846 | 0.0825 | 0.0964 | 0.0753 | 0.444 | 0.444 | 0.429 | 0.273 | 1.14 | 1 | 0.812 | 0.04 | 0.0982 | 1.08 | 1.18 | 1.06 | 1.04 | 0.114 | 0.116 | 0.315
11 | LK-2 | 0.18 | 0.182 | 0.162 | 0.183 | 0.664 | 0.957 | 0.918 | 0.497 |  | 1.06 | 1.01 |  | 0.817 |  |  |  |  |  |  | 
12 | NCI-H661 | 0.35 | 0.347 | 0.348 | 0.338 | 0.832 | 0.754 | 0.662 | 0.534 | 0.382 | 0.533 | 0.611 |  | 0.402 | 0.885 | 0.877 | 0.61 |  | 0.639 | 0.351 | 0.602
13 | PC-3 [JPC-3] | 0.899 | 0.947 | 0.851 | 0.847 | 1.15 |  | 1.08 | 0.898 | 0.453 | 0.443 | 0.464 | 0.421 | 0.473 | 0.745 | 0.83 | 0.838 | 0.884 | 0.825 | 0.792 | 1.15
14 | NCI-H1623 | 0.465 | 0.406 | 0.44 | 0.372 |  |  |  |  |  |  |  |  |  |  |  |  |  |  | 0.463 | 
15 | Calu-6 |  |  |  |  | 0.523 | 0.546 | 0.482 | 0.253 | 1.04 | 1.16 | 0.964 | 0.998 | 0.405 | 1.16 | 1.06 | 0.907 | 1.12 | 0.382 |  | 0.543
16 | LC-2-ad | 0.377 | 0.446 | 0.469 | 0.364 | 0.643 | 0.694 | 0.689 | 0.617 | 0.971 | 1.02 | 0.816 | 0.685 | 0.476 | 0.967 | 1.09 | 1.06 | 1.06 | 0.638 | 0.411 | 0.667
17 | CAL-12T | 0.361 | 0.353 | 0.222 | 0.174 | 0.732 | 0.747 | 0.699 | 0.508 | 0.697 | 0.673 | 0.486 | 0.247 | 0.617 | 0.941 | 0.92 | 0.909 | 1.17 | 0.831 | 0.272 | 0.634
18 | RERF-LC-KJ | 0.449 | 0.516 | 0.287 | 0.245 | 0.785 | 0.827 | 0.619 | 0.415 | 0.785 | 0.701 | 0.877 | 0.637 | 0.765 | 1.11 | 1.1 | 1.15 | 1.09 | 1.01 | 0.509 | 0.848
